Assay results taken from patent US20020137929A1, “1 - (3-heterocyclylphenyl) isothiourea, -isourea, -guanidine and -amidine herbicidal agents” (Intellectual Property Department, BASF Aktiengesellschaft, priority 1998, published 2002).

Legend:
[1] = test system: ABUTH (Velvetleaf); experiment: Postemergence herbicidal evaluation; format: in vivo, Abutilon theophrasti; conditions: for ABUTH herbicidal rating: postemergence
How it was run: (§1)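 Two-week-old seedlings sprayed with compound in 50/50 acetone/water plus 0.5% TWEEN 20, at about 0.0156 to 0.500 kg/ha, nozzle at 40 psi. Kept in greenhouse; rated visually 4-5 weeks after treatment on a 0-9 scale versus control, repeat tests averaged.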

[2] = test system: AMBEL (Ragweed, Common); experiment: Postemergence herbicidal evaluation; format: in vivo, Ambrosia artemisifolia; conditions: for AMBEL herbicidal rating: postemergence
How it was run: as §1

[3] = test system: CHEAL (Lambsquarters, Common); experiment: Postemergence herbicidal evaluation; format: in vivo, Chenopodium album; conditions: for CHEAL herbicidal rating: postemergence
How it was run: as §1

[4] = test system: ECHCG (Barnyardgrass); experiment: Postemergence herbicidal evaluation; format: in vivo, Echinochloa crus-galli; conditions: for ECHCG herbicidal rating: postemergence
How it was run: as §1

[5] = test system: GLXMAW (Soybean, Williams); experiment: Postemergence herbicidal evaluation; format: in vivo, Glycine max, (L.) Merr. cv Williams; conditions: for GLXMAW herbicidal rating: postemergence
How it was run: as §1

[6] = test system: ORYSAT (Rice, Tebonnet); experiment: Postemergence herbicidal evaluation; format: in vivo, Oryza sativa, (L.) Tebonnet; conditions: for ORYSAT herbicidal rating: postemergence
How it was run: as §1

[7] = test system: ZEAMX (Corn, Field); experiment: Postemergence herbicidal evaluation; format: in vivo, Zea mays; conditions: for ZEAMX herbicidal rating: postemergence
How it was run: as §1

[8] = test system: AMBEL (Ragweed, Common); experiment: Preemergence herbicidal evaluation; format: in vivo, Ambrosia artemisifolia; conditions: rated 4-5 weeks after treatment
How it was run: (§2)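 Seeds were mixed with potting soil and planted on about one inch of soil, then sprayed with test compound in aqueous acetone at about 0.0156 to 0.500 kg per hectare. Plants grew under standard greenhouse care and were visually rated 0-9 against untreated controls 4-5 weeks post-treatment.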

[9] = test system: CASOB (Sicklepod); experiment: Preemergence herbicidal evaluation; format: in vivo, Cassia obtusifolia; conditions: rated 4-5 weeks after treatment
How it was run: as §2

[10] = test system: CHEAL (Lambsquarters, Common); experiment: Preemergence herbicidal evaluation; format: in vivo, Chenopodium album; conditions: rated 4-5 weeks after treatment
How it was run: as §2

[11] = test system: GALAP (Galium); experiment: Preemergence herbicidal evaluation; format: in vivo, Galium aparine; conditions: rated 4-5 weeks after treatment
How it was run: as §2

[12] = test system: CYPSE (Flatsedge); experiment: Preemergence weed control under flooded paddy conditions; format: in vivo, Cyperus serotinus; conditions: rated 3-4 weeks after treatment
How it was run: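 Flooded-pot preemergence screen with silt loam and seeds in the upper 0.5 cm. Dose about 0.0313 to 0.500 kg/ha, delivered into flood water; visual 0-9 score after 3 to 4 weeks.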

[13] = test system: CYPIR (Rice Flatsedge); experiment: Postemergence weed control under flooded paddy conditions; format: in vivo, Cyperus iria; conditions: postemergence weeds
How it was run: (§3)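 Weeds 3 to 5 cm tall and rice seedlings at the 1.5 to 2.5 leaf stage were flooded, with water held 1.5 to 3 cm above the soil. Compounds in 50/50 v/v aqueous/acetone went into the flood water at about 0.0313 to 0.500 kg/ha. Visual 0-9 ratings versus control were made 3 to 4 weeks later.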

[14] = test system: CYPSE (Flatsedge); experiment: as above; format: in vivo, Cyperus serotinus; conditions: postemergence weeds
How it was run: as §3

[15] = rate 0.1250 kg/ha, 3-4 weeks after treatment
[16] = rate 0.2500 kg/ha, 3-4 weeks after treatment
[17] = Rate 0.0313 kg/ha, rated 3 to 4 weeks after treatment
[18] = Rate 0.0625 kg/ha, rated 3 to 4 weeks after treatment
[19] = Rate 0.1250 kg/ha, rated 3 to 4 weeks after treatment
[20] = Rate 0.2500 kg/ha, rated 3 to 4 weeks after treatment

O=C(O)CC1SC(=Nc2cc(N3C(=O)C4=C(CCCC4)C3=O)c(F)cc2Cl)N(CC(=O)O)C1=O (stereo not drawn) [Compound 48, 2-{[2-Chloro-5-(1-cyclohexene-1,2-dicarboximido)-4-fluorophenyl]imino}-4-oxo-3,5-thiazolidinediacetic acid]
0.0: Postemergence herbicidal rating ECHCG ([4]; Rate 0.0156 kg/ha) | Preemergence herbicidal rating AMBEL ([8]; rate 0.0156 kg/ha) | Preemergence herbicidal rating AMBEL ([8]; rate 0.0313 kg/ha) | Preemergence herbicidal rating AMBEL ([8]; rate 0.0625 kg/ha) | Preemergence herbicidal rating AMBEL ([8]; rate 0.1250 kg/ha) | Preemergence herbicidal rating CASOB ([9]; rate 0.0156 kg/ha) | Preemergence herbicidal rating CASOB ([9]; rate 0.0313 kg/ha) | Preemergence herbicidal rating CASOB ([9]; rate 0.0625 kg/ha) | Preemergence herbicidal rating CASOB ([9]; rate 0.1250 kg/ha) | Preemergence herbicidal rating GALAP ([11]; rate 0.0156 kg/ha) | Preemergence herbicidal rating GALAP ([11]; rate 0.0313 kg/ha) | Preemergence herbicidal rating GALAP ([11]; rate 0.0625 kg/ha) | Preemergence herbicidal rating GALAP ([11]; rate 0.1250 kg/ha) | Preemergence herbicidal rating GALAP ([11]; rate 0.2500 kg/ha) | Herbicidal rating CYPSE ([12]; 0.1250 kg/ha) | Herbicidal rating CYPSE ([12]; 0.2500 kg/ha) | Herbicidal rating CYPSE [14, 15] | Herbicidal rating CYPSE [14, 16]
0.5: Postemergence herbicidal rating ORYSAT ([6]; Rate 0.0156 kg/ha) | Postemergence herbicidal rating ORYSAT ([6]; Rate 0.0313 kg/ha)
2.0: Postemergence herbicidal rating ECHCG ([4]; Rate 0.0313 kg/ha) | Postemergence herbicidal rating ECHCG ([4]; Rate 0.0625 kg/ha) | Postemergence herbicidal rating ORYSAT ([6]; Rate 0.0625 kg/ha) | Herbicidal rating CYPIR [13, 15]
5.0: Postemergence herbicidal rating AMBEL ([2]; Rate 0.0313 kg/ha) | Herbicidal rating CYPIR [13, 16]
3.0: Postemergence herbicidal rating AMBEL ([2]; Rate 0.0156 kg/ha) | Postemergence herbicidal rating CHEAL ([3]; Rate 0.0156 kg/ha) | Preemergence herbicidal rating CASOB ([9]; rate 0.2500 kg/ha)
5.5: Postemergence herbicidal rating GLXMAW ([5]; Rate 0.0156 kg/ha) | Postemergence herbicidal rating ZEAMX ([7]; Rate 0.0156 kg/ha) | Postemergence herbicidal rating ZEAMX ([7]; Rate 0.0313 kg/ha)
6.5: Postemergence herbicidal rating ZEAMX ([7]; Rate 0.0625 kg/ha)
6.0: Postemergence herbicidal rating GLXMAW ([5]; Rate 0.0313 kg/ha)
4.0: Postemergence herbicidal rating CHEAL ([3]; Rate 0.0313 kg/ha) | Postemergence herbicidal rating CHEAL ([3]; Rate 0.0625 kg/ha) | Preemergence herbicidal rating AMBEL ([8]; rate 0.2500 kg/ha)
7.5: Postemergence herbicidal rating GLXMAW ([5]; Rate 0.0625 kg/ha)
9.0: Postemergence herbicidal rating ABUTH ([1]; Rate 0.0156 kg/ha) | Postemergence herbicidal rating ABUTH ([1]; Rate 0.0313 kg/ha) | Postemergence herbicidal rating ABUTH ([1]; Rate 0.0625 kg/ha) | Postemergence herbicidal rating AMBEL ([2]; Rate 0.0625 kg/ha) | Preemergence herbicidal rating CHEAL ([10]; rate 0.0156 kg/ha) | Preemergence herbicidal rating CHEAL ([10]; rate 0.0313 kg/ha) | Preemergence herbicidal rating CHEAL ([10]; rate 0.0625 kg/ha) | Preemergence herbicidal rating CHEAL ([10]; rate 0.1250 kg/ha) | Preemergence herbicidal rating CHEAL ([10]; rate 0.2500 kg/ha)

CCOC(=O)C(c1ccc(Cl)cc1)N1C(=O)CSC1=Nc1cc(-n2c(=O)cc(C(F)(F)F)n(C)c2=O)c(F)cc1Cl (racemic) [Compound 79, Ethyl α-(p-chlorophenyl)-2-{{2-chloro-5-[3,6-dihydro-3-methyl-2,6-dioxo-4-(trifluoromethyl)-1(2H)-pyrimidinyl]-4-fluorophenyl}imino}-4-oxo-3-thiazolidineacetate, DL-]
5.0: GLXMAW herbicidal rating ([5]; rate 0.0315 kg/ha) | GLXMAW herbicidal rating ([5]; rate 0.0630 kg/ha) | ZEAMX herbicidal rating ([7]; rate 0.0158 kg/ha) | ZEAMX herbicidal rating ([7]; rate 0.0630 kg/ha)
3.0: Preemergence herbicidal rating AMBEL ([8]; rate 0.0625 kg/ha)
4.5: GLXMAW herbicidal rating ([5]; rate 0.0158 kg/ha) | ZEAMX herbicidal rating ([7]; rate 0.0315 kg/ha)
8.0: Preemergence herbicidal rating AMBEL ([8]; rate 0.2500 kg/ha)
0.0: Preemergence herbicidal rating CASOB ([9]; rate 0.0625 kg/ha) | Preemergence herbicidal rating CASOB ([9]; rate 0.1250 kg/ha) | Preemergence herbicidal rating GALAP ([11]; rate 0.0313 kg/ha) | Preemergence herbicidal rating GALAP ([11]; rate 0.0625 kg/ha) | Preemergence herbicidal rating GALAP ([11]; rate 0.1250 kg/ha) | Preemergence herbicidal rating GALAP ([11]; rate 0.2500 kg/ha) | CYPSE herbicidal effect rating ([12]; 0.0313 kg/ha) | CYPSE herbicidal effect rating ([12]; 0.0625 kg/ha) | CYPSE herbicidal effect rating ([12]; 0.1250 kg/ha) | Herbicidal rating CYPIR [13, 17] | Herbicidal rating CYPIR [13, 18] | Herbicidal rating CYPSE [14, 17] | Herbicidal rating CYPSE [14, 18] | Herbicidal rating CYPSE [14, 19]
4.0: ORYSAT herbicidal rating ([6]; rate 0.0630 kg/ha)
2.0: Herbicidal rating CYPIR [13, 19]
7.0: AMBEL herbicidal rating ([2]; rate 0.0315 kg/ha) | CHEAL herbicidal rating ([3]; rate 0.0315 kg/ha) | CHEAL herbicidal rating ([3]; rate 0.0630 kg/ha)
6.0: AMBEL herbicidal rating ([2]; rate 0.0158 kg/ha) | Herbicidal rating CYPIR [13, 20]
1.0: CHEAL herbicidal rating ([3]; rate 0.0158 kg/ha) | ECHCG herbicidal rating ([4]; rate 0.0158 kg/ha) | ECHCG herbicidal rating ([4]; rate 0.0315 kg/ha) | ECHCG herbicidal rating ([4]; rate 0.0630 kg/ha) | Preemergence herbicidal rating AMBEL ([8]; rate 0.0313 kg/ha) | Preemergence herbicidal rating AMBEL ([8]; rate 0.1250 kg/ha) | Preemergence herbicidal rating CASOB ([9]; rate 0.0313 kg/ha) | Preemergence herbicidal rating CASOB ([9]; rate 0.2500 kg/ha)
2.5: ORYSAT herbicidal rating ([6]; rate 0.0158 kg/ha) | ORYSAT herbicidal rating ([6]; rate 0.0315 kg/ha)
9.0: ABUTH herbicidal rating ([1]; rate 0.0158 kg/ha) | ABUTH herbicidal rating ([1]; rate 0.0315 kg/ha) | ABUTH herbicidal rating ([1]; rate 0.0630 kg/ha) | AMBEL herbicidal rating ([2]; rate 0.0630 kg/ha) | Preemergence herbicidal rating CHEAL ([10]; rate 0.0313 kg/ha) | Preemergence herbicidal rating CHEAL ([10]; rate 0.0625 kg/ha) | Preemergence herbicidal rating CHEAL ([10]; rate 0.1250 kg/ha) | Preemergence herbicidal rating CHEAL ([10]; rate 0.2500 kg/ha) | CYPSE herbicidal effect rating ([12]; 0.2500 kg/ha) | Herbicidal rating CYPSE [14, 20]
